The results in this text go back to patent US20250388582A1, “NOVEL BICYCLIC HETEROARYL COMPOUND AND USE THEREOF” (ILDONG PHARMACEUTICAL CO., LTD., priority 2022, published 2025).

By pIC50 is commonly meant −log10 of the IC50, conventionally taken in molar units. Low values mean a large IC50, high ones a small IC50.

pIC50: −log10 of the molar value.

Data set [1] is described as follows: Microsomal metabolic stability assay. Type of data set: in vitro ADME, human or CD1 male mouse. The note with it: Clint class; 1 μM compound, 0.5 mg/ml microsomes, NADPH, UDPGA, Alamethicin; species not given. Here is the method: The microsomal metabolic stability assay was performed using pooled human or CD1 male mouse interspecies microsomes. Supplemental cofactors (NADPH, UDPGA) and microsomal membrane pore-forming factor (Alamethicin) were added to promote cytochrome P450 (CYP), UGT reactivity to the target compound. Test compounds (1 μM incubation concentration) and microsomes (0.5 mg/ml incubation concentration) were diluted in 0.1 M phosphate buffer, pH 7.4, and incubated (37° C.). The reaction was initiated by the addition of NADPH (1 mM), UDPGA (1 mM) and Alamethicin (25 μg/mg). The incubation times were 0, 5, 15, 30, and 45 minutes, and at each time point, the reaction was terminated by adding acetonitrile containing internal standard (IS)(1:3 ratio). The plate was then sealed, centrifuged (3000 rpm, 20 min, 4° C.), and the supernatant was analyzed by LC-MS/MS. Hepatic extraction ratio values were calculated from the measured in vitro clearance and Intrinsic clearance (Clint) values were calculated from the assay results, and the respective Clint values were categorized into Low, Medium, and High categories based on the reference document (ref. Prostaglandins & other lipid mediators 136 (2018): 90-95).

Data set [2] concerns the target T1, human GST-PIKFYVE (Homo sapiens, UniProt Q9Y2I7).
T1 construct: GST; purchased Carna biosciences 11-118
The data set is described as follows: ADP-Glo kinase assay, enzyme inhibition activity against human PIKFYVE (Carna biosciences). It is filed as biochemical. Particulars: inhibitory activity at final compound concentration 10 nM; 1 hour at room temperature. In a few lines: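 Human GST-PIKFYVE (glutathione Sepharose-purified) was reacted with substrate and ATP for 1 h at room temperature in 50 mM MOPS, 1 mM DTT, pH 7.2, with compound at 10 nM final. ADP formed was read by ADP-Glo luminescence; inhibition was calculated against no-enzyme (100%) and no-compound (0%) controls.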

In data set [3] the target is T2, PIKFYVE (Homo sapiens, UniProt Q9Y2I7).
T2 construct: host or cells: HEK293 (ATCC, CRL-1573)
Nature of the data set: NanoBRET TE Intracellular Kinase Assay, interaction of PIKFYVE and compounds in HEK293 cells. It is filed as cell-based. Particulars: IC50 class from BRET; HEK293 cells expressing PIKFYVE-NanoLuc; 2 hours incubation. How it is done: To predict the efficacy of the compounds according to Example on PIKFYVE in humans, the interaction between PIKFYVE and the compounds was tested using the HEK293 cell line derived from human embryonic kidney (ATCC, CRL-1573) via NanoBRETT TE Intracellular Kinase Assay Service of Carna biosciences Inc., (Japan). The evaluation method provided by Carna biosciences Inc., was shown below and the NanoBRET™ TE Intracellular Kinase Assay, K-8 Kit (Promega, CS1810C88) was used.
The HEK-293 cells cultured in Opti-MEM™ I Reduced Serum Medium (Thermo Fisher, 11058-021) were transfected with Transfection Carrier DNA (Promega, E4881), PIKFYVE-NanoLuc Fusion Vector (Promega, CS1810C225), and FuGENE HD Transfection Reagent (Promega, E2311) to produce cells expressing genes combining PIKFYVE and NanoLuc, followed by culturing 100 μl (2×10^5 cells/ml) each in 96-well plates (Corning, 3917).
10× compounds according to Examples or Comparative Examples prepared by concentration in 1× NanoBRET™ tracer reagent and DMSO were reacted in 96-well plates and incubated for 2 hours in a 37° C., 5% CO2 incubator.
After the reaction was completed, 3× Complete NanoBRET™ Nano-Glo Substrate solution was added to each well, and the reaction was allowed to run for 2-3 minutes at room temperature before BRET was measured using a GloMax Discover Multimode Microplate Reader (Promega).
(In general: BRET reads energy transfer from a luciferase to a nearby fluorophore.)

T1 sequence (Q9Y2I7 whole entry): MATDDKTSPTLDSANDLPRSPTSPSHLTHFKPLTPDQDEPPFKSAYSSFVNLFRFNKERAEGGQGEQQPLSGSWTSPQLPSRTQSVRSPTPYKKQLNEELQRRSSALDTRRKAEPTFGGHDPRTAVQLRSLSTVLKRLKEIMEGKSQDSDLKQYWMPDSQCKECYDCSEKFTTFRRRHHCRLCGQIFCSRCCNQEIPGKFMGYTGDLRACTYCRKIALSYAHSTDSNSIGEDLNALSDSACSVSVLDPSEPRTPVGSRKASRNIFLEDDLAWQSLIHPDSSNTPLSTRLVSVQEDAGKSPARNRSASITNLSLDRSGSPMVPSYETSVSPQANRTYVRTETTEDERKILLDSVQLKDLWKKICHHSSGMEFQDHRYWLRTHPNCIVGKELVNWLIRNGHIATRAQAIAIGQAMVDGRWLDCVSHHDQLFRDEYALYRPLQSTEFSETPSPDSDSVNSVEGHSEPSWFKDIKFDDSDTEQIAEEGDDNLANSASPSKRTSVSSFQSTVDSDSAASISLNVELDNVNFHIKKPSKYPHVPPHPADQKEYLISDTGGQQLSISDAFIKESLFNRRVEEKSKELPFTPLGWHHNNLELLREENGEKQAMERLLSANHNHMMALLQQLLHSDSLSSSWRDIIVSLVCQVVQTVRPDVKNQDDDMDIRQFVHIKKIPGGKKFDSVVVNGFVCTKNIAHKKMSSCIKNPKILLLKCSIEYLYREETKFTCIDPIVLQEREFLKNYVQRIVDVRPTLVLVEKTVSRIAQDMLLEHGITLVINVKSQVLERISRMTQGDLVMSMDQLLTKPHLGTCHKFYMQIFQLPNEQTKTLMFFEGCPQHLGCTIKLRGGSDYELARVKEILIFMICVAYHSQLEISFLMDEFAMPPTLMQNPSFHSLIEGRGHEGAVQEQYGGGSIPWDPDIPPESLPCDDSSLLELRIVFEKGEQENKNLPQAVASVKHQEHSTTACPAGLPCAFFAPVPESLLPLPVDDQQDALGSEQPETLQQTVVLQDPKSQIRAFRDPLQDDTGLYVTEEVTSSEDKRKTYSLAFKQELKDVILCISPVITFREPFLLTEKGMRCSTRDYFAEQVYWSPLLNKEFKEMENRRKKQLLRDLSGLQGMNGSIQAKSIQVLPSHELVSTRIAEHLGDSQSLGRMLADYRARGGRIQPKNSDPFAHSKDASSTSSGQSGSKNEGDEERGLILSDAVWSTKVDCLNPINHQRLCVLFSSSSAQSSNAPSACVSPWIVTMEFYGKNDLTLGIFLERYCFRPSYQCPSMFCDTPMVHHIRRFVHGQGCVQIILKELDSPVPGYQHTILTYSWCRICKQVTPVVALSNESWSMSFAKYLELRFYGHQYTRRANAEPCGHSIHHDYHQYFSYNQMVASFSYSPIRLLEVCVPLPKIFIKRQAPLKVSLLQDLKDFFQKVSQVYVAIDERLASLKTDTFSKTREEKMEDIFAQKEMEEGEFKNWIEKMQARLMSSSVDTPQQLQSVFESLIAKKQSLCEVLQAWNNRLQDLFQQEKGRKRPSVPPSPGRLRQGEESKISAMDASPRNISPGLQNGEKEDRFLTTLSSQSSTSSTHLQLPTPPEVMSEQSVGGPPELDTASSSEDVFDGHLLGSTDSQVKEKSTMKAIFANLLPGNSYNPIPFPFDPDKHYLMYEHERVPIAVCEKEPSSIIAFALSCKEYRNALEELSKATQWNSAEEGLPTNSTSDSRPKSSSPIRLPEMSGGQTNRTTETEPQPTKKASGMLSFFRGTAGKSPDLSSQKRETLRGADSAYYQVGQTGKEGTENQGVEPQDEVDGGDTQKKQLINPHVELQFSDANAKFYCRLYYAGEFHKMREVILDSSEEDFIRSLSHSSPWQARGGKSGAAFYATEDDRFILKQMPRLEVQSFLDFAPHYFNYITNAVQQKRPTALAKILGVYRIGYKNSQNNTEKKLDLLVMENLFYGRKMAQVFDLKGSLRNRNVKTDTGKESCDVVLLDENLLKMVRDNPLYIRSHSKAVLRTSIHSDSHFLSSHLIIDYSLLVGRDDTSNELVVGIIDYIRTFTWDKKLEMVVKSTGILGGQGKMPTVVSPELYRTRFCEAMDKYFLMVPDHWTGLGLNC
T2 sequence (Q9Y2I7 whole entry): as above

`Cc1cccc(/C=N/Nc2nc(N3CCOCC3)nc3c2ncn3CC(=O)c2ccccn2)c1` [Example 23, (E)-2-(6-(2-(3-methylbenzylidene)hydrazinyl)-2-morpholino-9H-purin-9-yl)-1-(pyridin-2-yl)ethan-1-one]: in data set [1], the Microsomal metabolic stability result was “Medium (Medium 8.8~48,)”. Also, in data set [2], the “ADP-Glo kinase assay (%, 10 nM)” value is reported as 90.82%. In addition, the pIC50 in data set [3] is at least 8.00.
On to `O=C(Cn1cnc2c(N/N=C/c3c[nH]c4ccccc34)nc(N3CCOCC3)nc21)c1ccccn1` [Example 24, (E)-2-(6-(2-((1H-indol-3-yl)methylene)hydrazinyl)-2-morpholino-9H-purin-9-yl)-1-(pyridin-2-yl)ethan-1-one], for which the Microsomal metabolic stability entry in data set [1] is on record as “Medium (Medium 8.8~48,)”. The “ADP-Glo kinase assay (%, 10 nM)” value in data set [2] was found to be 72.15%. The pIC50 in data set [3] is 7.70 to 8.00.
For `Cc1cccc(/C=N/Nc2nc(N3CCOCC3)nc3c2ncn3CC(=O)c2ccc[nH]2)c1` [Example 34, (E)-2-(6-(2-(3-methylbenzylidene)hydrazinyl)-2-morpholino-9H-purin-9-yl)-1-(1H-pyrrol-2-yl)ethan-1-one], the Microsomal metabolic stability entry in data set [1] was “Medium (Medium 8.8~48,)”. The “ADP-Glo kinase assay (%, 10 nM)” value in data set [2] worked out at 74.72%.
On to `COc1ccc(C(=O)Cn2cnc3c(N/N=C/c4cccc(C)c4)nc(N4CCOCC4)nc32)cc1` [Example 39, (E)-1-(4-methoxyphenyl)-2-(6-(2-(3-methylbenzylidene)hydrazinyl)-2-morpholino-9H-purin-9-yl)ethan-1-one], for which the Microsomal metabolic stability result in data set [1] was “Medium (Medium 8.8~48,)”. In addition, in data set [2], the “ADP-Glo kinase assay (%, 10 nM)” value was found to be 74.99%. The compound further had a pIC50 in data set [3] of 7.70 to 8.00.
`Cc1ccc(C(=O)Cn2cnc3c(N/N=C/c4cccc(C)c4)nc(N4CCOCC4)nc32)cc1` [Example 42, (E)-2-(6-(2-(3-methylbenzylidene)hydrazinyl)-2-morpholino-9H-purin-9-yl)-1-(p-tolyl)ethan-1-one]: in data set [1], the Microsomal metabolic stability result is recorded as “Low (Low <8.8,)”. In data set [2], the “ADP-Glo kinase assay (%, 10 nM)” value is listed as 81.60%. Further, in data set [3], the pIC50 was at least 8.00.
Turning to `Cc1cccc(/C=N/Nc2nc(N3CCOCC3)nc3c2ncn3C2CN(S(C)(=O)=O)C2)c1` [Example 85, (E)-4-(6-(2-(3-methylbenzylidene)hydrazinyl)-9-(1-(methylsulfonyl)azetidin-3-yl)-9H-purin-2-yl)morpholine], in data set [1], the Microsomal metabolic stability entry is listed as “Medium (Medium 8.8~48,)”. For the same compound, the “ADP-Glo kinase assay (%, 10 nM)” value in data set [2] is given as 70.06%.
`Cc1cccc(/C=N/Nc2nc(N3CCOCC3)nc3c2ncn3-c2ccccc2)c1` [Example 119, (E)-4-(6-(2-(3-methylbenzylidene)hydrazinyl)-9-phenyl-9H-purin-2-yl)morpholine]: in data set [2], the “ADP-Glo kinase assay (%, 10 nM)” value was 80.61%. For the same compound, the pIC50 in data set [3] was at least 8.00.
In the case of `Cc1cccc(/C=N/Nc2nc(N3CCOCC3)nc3c2ncn3-c2ccc(N(C)C)cc2)c1` [Example 123, (E)-N,N-dimethyl-4-(6-(2-(3-methylbenzylidene)hydrazinyl)-2-morpholino-9H-purin-9-yl)aniline], in data set [2], the “ADP-Glo kinase assay (%, 10 nM)” value amounted to 84.48%. Besides, the pIC50 in data set [3] is at least 8.00.
Taken in the same sequence, the figures for `COc1ccccc1-n1cnc2c(N/N=C/c3cccc(C)c3)nc(N3CCOCC3)nc21` [Example 124, (E)-4-(9-(2-methoxyphenyl)-6-(2-(3-methylbenzylidene)hydrazinyl)-9H-purin-2-yl)morpholine] were 87.81% and at least 8.00.
Turning to `Cc1cccc(/C=N/Nc2nc(N3CCOCC3)nc3c2ncn3-c2cccc(OC3CC3)c2)c1` [Example 125, (E)-4-(9-(3-cyclopropoxyphenyl)-6-(2-(3-methylbenzylidene)hydrazinyl)-9H-purin-2-yl)morpholine], the “ADP-Glo kinase assay (%, 10 nM)” value in data set [2] was 65.27%. In addition, in data set [3], the pIC50 was at least 8.00.
As to `Cc1cccc(/C=N/Nc2nc(N3CCOCC3)nc3c2ncn3-c2cccc(O)c2)c1` [Example 131, (E)-3-(6-(2-(3-methylbenzylidene)hydrazinyl)-2-morpholino-9H-purin-9-yl)phenol], the “ADP-Glo kinase assay (%, 10 nM)” value in data set [2] is 91.40%. Further, the pIC50 in data set [3] is at least 8.00.
The corresponding values for `COc1cccc(-n2cnc3c(-n4ccc(-c5cccc(C)c5)n4)nc(N4CCOCC4)nc32)c1` [Example 137, 4-(9-(3-methoxyphenyl)-6-(3-(m-tolyl)-1H-pyrazol-1-yl)-9H-purin-2-yl)morpholine] are 81.44% and at least 8.00.
The corresponding values for `Cc1ccc(-n2cnc3c(N/N=C/c4cccc(C)c4)nc(N4CCOCC4)nc32)nc1` [Example 143, (E)-4-(6-(2-(3-methylbenzylidene)hydrazinyl)-9-(5-methylpyridin-2-yl)-9H-purin-2-yl)morpholine] are 90.79% and at least 8.00.
As for `Cc1cccc(/C=N/Nc2nc(N3CCOCC3)nc3c2ncn3-c2cncc(C)c2)c1` [Example 145, (E)-4-(6-(2-(3-methylbenzylidene)hydrazinyl)-9-(5-methylpyridin-3-yl)-9H-purin-2-yl)morpholine], the “ADP-Glo kinase assay (%, 10 nM)” value in data set [2] stood at 94.29%. In addition, the pIC50 in data set [3] was at least 8.00.
Consider `Cc1cccc(/C=N/Nc2nc(N3CCOCC3)nc3c2ncn3-c2ccc(C#N)cn2)c1` [Example 146, (E)-6-(6-(2-(3-methylbenzylidene)hydrazinyl)-2-morpholino-9H-purin-9-yl)nicotinonitrile], for which, in data set [2], the “ADP-Glo kinase assay (%, 10 nM)” value turned out to be 79.77%. The compound further gave a pIC50 in data set [3] of at least 8.00.
`Cc1cccc(/C=N/Nc2nc(N3CCOCC3)nc3c2ncn3-c2cc(C)ns2)c1` [Example 148, (E)-4-(6-(2-(3-methylbenzylidene)hydrazinyl)-9-(3-methylisothiazol-5-yl)-9H-purin-2-yl)morpholine]: in data set [2], the “ADP-Glo kinase assay (%, 10 nM)” value is given as 73.88%. This compound also had a negative-log IC50 (pIC50) in data set [3] of at least 8.00.
With `Cc1cccc(/C=N/n2cnc3c(Nc4cccnc4)nc(N4CCOCC4)nc32)c1` [Example 191, (E)-9-((3-methylbenzylidene)amino)-2-morpholino-N-(pyridin-3-yl)-9H-purin-6-amine], the “ADP-Glo kinase assay (%, 10 nM)” value in data set [2] is given as 76.59%. The pIC50 in data set [3] was 7.70 to 8.00.
Take `Cc1cccc(/C=N/Nc2nc(N3CCOCC3)nc3c(-c4c(C)noc4C)cccc23)c1` [Example 210, (E)-4-(8-(3,5-dimethylisoxazol-4-yl)-4-(2-(3-methylbenzylidene)hydrazinyl)quinazolin-2-yl)morpholine]: the “ADP-Glo kinase assay (%, 10 nM)” value in data set [2] is recorded as 65.10%. Further, the pIC50 in data set [3] is 7.52 to 7.70.
On to `COc1cccc(-c2cccc3c(N/N=C/c4cccc(C)c4)nc(N4CCOCC4)nc23)c1` [Example 211, (E)-4-(8-(3-methoxyphenyl)-4-(2-(3-methylbenzylidene)hydrazinyl)quinazolin-2-yl)morpholine], for which, in data set [2], the “ADP-Glo kinase assay (%, 10 nM)” value is 64.14%. Moreover, the pIC50 in data set [3] is 7.52 to 7.70.
`COc1ccc(-c2cccc3c(N/N=C/c4cccc(C)c4)nc(N4CCOCC4)nc23)cc1` [Example 213, (E)-4-(8-(4-methoxyphenyl)-4-(2-(3-methylbenzylidene)hydrazinyl)quinazolin-2-yl)morpholine]: in data set [2], the “ADP-Glo kinase assay (%, 10 nM)” value was 68.30%. For the same compound, the pIC50 in data set [3] was 7.70 to 8.00.
